Consider 2 compounds from patent US20030224469A1, “Methods and kits for assays utilizing fluorescence polarization” (priority 2002, published 2003).

What is called pIC50 is the IC50 on a negative log10 scale, so that one unit is a factor of ten.

Assay [1] addresses T1, T-Cell Protein Tyrosine Phosphatase (TC PTP) (Homo sapiens, UniProt P17706).
T1 construct: purchased New England Biolabs
T1 sequence (P17706 1-317 limits assumed): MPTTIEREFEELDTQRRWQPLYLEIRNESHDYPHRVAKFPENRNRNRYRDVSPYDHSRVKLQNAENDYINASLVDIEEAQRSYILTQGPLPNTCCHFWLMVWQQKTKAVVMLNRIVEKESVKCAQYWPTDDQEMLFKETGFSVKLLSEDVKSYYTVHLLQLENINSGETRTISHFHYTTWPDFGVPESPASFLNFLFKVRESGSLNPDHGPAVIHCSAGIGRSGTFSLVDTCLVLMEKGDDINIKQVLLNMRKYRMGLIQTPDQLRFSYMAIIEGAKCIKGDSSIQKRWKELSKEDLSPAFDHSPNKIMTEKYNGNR
As to the kind of experiment: FP-based protein tyrosine phosphatase assay (dual color). Type of assay: biochemical. The protocol: The enzymatic activity of T-Cell Protein Tyrosine Phosphatase (TC PTP) was measured in a dose-dependent manner by incubating different concentrations of TC PTP (New England Biolabs; Beverly, Mass.), from 0.05 U/μL to 0.0005 U/μL, with 50 μL of a mixture of an anti-phosphotyrosine antibody, a fluorescein-labeled phosphopeptide and a tetramethylrhodamine-labeled phosphopeptides. The final reaction volume was […]. Two control assays were performed. […] Fluorescence polarization measurements were performed using the appropriate excitation and emission filters appropriate for each fluorophore. Increasing concentrations of TC PTP result in an increased rate of dephosphorylation of the labeled phosphopeptides, which is indicated by a decrease in polarization (due to the inability of the dephosphorylated peptide to bind to the antibody).
In a black, 96-well plate (DYNEX; Chantilly, Va.), Na3VO4 (Sigma; St. Louis, Mo.) was serially diluted 2-fold into 24 wells from a starting concentration of 500 nM in a volume of 50 μL. TC PTP was then added to each well so that the final concentration of the enzyme would be 0.005 U/μL per assay. […] At the end of the incubation, 10 μL of 550 μM Na3VO4 was added to quench all of the reactions, and the polarization for each sample was measured on a TECAN Polarion using the appropriate excitation and emission filters appropriate for each fluorophore. […]

In assay [2] the target is glucocorticoid receptor (GR) (Homo sapiens, UniProt P04150). The protocol:
A non-labeled steroid (dexamethasone) was serially diluted in 10 mM potassium phosphate pH 7.4,20 mM Na2MoO4, 2% DMSO, 0.1 mM EDTA, 0.5 mM DTT buffer containing 0.1 mM stabilizing peptide. This steroid was used as a competitive binder to glucocorticoid receptor (GR). […] Control wells were also prepared without either unconjugated fluorescein or TMR present. As in Examples 1 and 2, two separate fluorescence polarization values were obtained for each sample using a green filter or a red filter.

pIC50: −log10 of the molar value. Read-outs that look alike come from different tables or passages of the source.

Sequence of glucocorticoid receptor (GR) (P04150 whole entry, species assumed): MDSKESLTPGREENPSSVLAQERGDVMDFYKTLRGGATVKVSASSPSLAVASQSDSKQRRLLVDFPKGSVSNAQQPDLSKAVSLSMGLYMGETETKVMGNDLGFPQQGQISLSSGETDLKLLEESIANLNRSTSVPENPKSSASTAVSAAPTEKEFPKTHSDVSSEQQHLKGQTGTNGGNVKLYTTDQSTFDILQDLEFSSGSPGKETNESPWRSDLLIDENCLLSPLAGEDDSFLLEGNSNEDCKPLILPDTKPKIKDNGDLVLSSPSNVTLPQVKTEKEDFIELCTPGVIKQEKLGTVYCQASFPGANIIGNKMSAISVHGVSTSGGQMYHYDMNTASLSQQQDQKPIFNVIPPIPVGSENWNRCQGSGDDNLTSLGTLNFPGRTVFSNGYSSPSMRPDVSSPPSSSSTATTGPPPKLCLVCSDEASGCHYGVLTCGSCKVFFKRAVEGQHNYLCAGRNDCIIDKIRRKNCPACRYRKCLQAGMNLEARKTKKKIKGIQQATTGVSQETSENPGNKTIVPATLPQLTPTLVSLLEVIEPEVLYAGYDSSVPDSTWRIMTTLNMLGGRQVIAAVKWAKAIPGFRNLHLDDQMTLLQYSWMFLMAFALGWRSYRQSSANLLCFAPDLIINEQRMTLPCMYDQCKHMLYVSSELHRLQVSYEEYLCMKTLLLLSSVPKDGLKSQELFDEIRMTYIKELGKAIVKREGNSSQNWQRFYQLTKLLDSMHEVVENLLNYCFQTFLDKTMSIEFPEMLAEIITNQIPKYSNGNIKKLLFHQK

With `[Na+].[Na+].[Na+].[O]=[V]([O-])([O-])[O-]` [Na3VO4], the “inhibition of TC PTP-dependent change in polarization” value in assay [1] (50 μM Na3VO4) was “completely inhibited”. In addition, the pIC50 in assay [1] (TC PTP 0.005 U/μL, 15 minutes incubation, nonlinear regression of semi-log plot) was 8.40.

In the case of dexamethasone [steroid competitor], the values for the fluorescence polarization result in assay [2] (high concentrations of steroid competitor) and in assay [2] (low concentration of competitor) were “about 60 mP” and around 260 mP, respectively.
